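1) Cells in 96-well plates. 2) Compound, 48 h, 5 concentrations. 3) Linear interpolation between surrounding doses. 4) Unreached endpoint = highest concentration. Here, GI50 denotes the concentration required for 50% inhibition of growth. TGI: total growth inhibition.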

Some test systems named below: 786-0 renal; HCC-2998 colon; HCT-15 colon; HOP-92 NSCLC; M14 melanoma; MALME-3M melanoma; NCI-H522 lung; OVCAR-5 ovarian; SF-539 CNS; UO-31 renal.
Test in all cases: DTP human tumour cell line panel, 48 h

As a reminder, the GI50 is the concentration giving 50% growth inhibition. As usually defined, the TGI is the concentration at which net growth stops. Low values mean greater sensitivity of the cells, high ones lower sensitivity of the cells. In the case of `COc1cccc(Cn2c(-c3nonc3NC(C)=O)nc3ccccc32)c1`, the GI50 is 10.4 µM in the experiment on 786-0 renal; 5.83 µM with HCC-2998 colon; 3.59 µM in the experiment with HCT-15 colon; 2.16 µM in the experiment with HOP-92 NSCLC; 4.02 µM in the experiment on M14 melanoma; 3.31 µM in the experiment with MALME-3M melanoma. Also, the GI50 in the experiment on NCI-H522 lung was 2.95 µM; in the experiment with OVCAR-5 ovarian, 4.04 µM; in the experiment on SF-539 CNS it was 3.65 µM; in the experiment on UO-31 renal it was 3.72 µM. In addition, the TGI in the experiment with 786-0 renal is over 100 µM; with HCC-2998 colon it was over 100 µM; in the experiment on HCT-15 colon, over 100 µM; in the experiment with HOP-92 NSCLC it was 17.6 µM; with M14 melanoma it was over 100 µM; with MALME-3M melanoma, 43.8 µM. Further, the TGI with NCI-H522 lung was 90.3 µM; in the experiment on OVCAR-5 ovarian, over 100 µM; in the experiment on SF-539 CNS, over 100 µM; with UO-31 renal it was over 100 µM.

On to `O=C(O)CP(=O)(O)O`, for which the TGI with 786-0 renal, with HCC-2998 colon, in the experiment on HCT-15 colon, in the experiment on HOP-92 NSCLC, in the experiment with M14 melanoma and with MALME-3M melanoma was over 100 µM each time. The TGI in the experiment on NCI-H522 lung, with OVCAR-5 ovarian, with SF-539 CNS and in the experiment with UO-31 renal was over 100 µM in each case.

For `COc1ccc(CCN2CCC(Nc3nc4ccccc4n3Cc3ccc(F)cc3)CC2)cc1`, the GI50 with 786-0 renal was 1.46 µM; in the experiment with HCC-2998 colon, 0.46 µM; in the experiment on HCT-15 colon it was 1.51 µM; in the experiment with HOP-92 NSCLC it was 0.406 µM; in the experiment on M14 melanoma it was 1.72 µM; in the experiment with MALME-3M melanoma, 1.72 µM. Also, the GI50 was 2.37 µM with NCI-H522 lung, 1.66 µM with OVCAR-5 ovarian, 1.77 µM in the experiment on SF-539 CNS and 1.29 µM with UO-31 renal. Also, the TGI was determined as 2.77 µM in the experiment on 786-0 renal; 1.69 µM with HCC-2998 colon; 3.16 µM in the experiment on HCT-15 colon; 2.29 µM in the experiment with HOP-92 NSCLC; 3.15 µM in the experiment on M14 melanoma; 3.4 µM in the experiment with MALME-3M melanoma. For the same compound, the TGI in the experiment with NCI-H522 lung came to 4.91 µM; with OVCAR-5 ovarian, 3.7 µM; with SF-539 CNS it was 3.25 µM; in the experiment on UO-31 renal, 2.62 µM.

For `Cn1ccnc1C(=O)/C=C/c1ccc(CC(=O)Nc2ccc(F)cc2)cc1`, the GI50 with 786-0 renal is 1.37 µM; in the experiment with HCC-2998 colon, 3.78 µM; with HCT-15 colon, 1.29 µM; with HOP-92 NSCLC it was 4.51 µM; in the experiment with M14 melanoma it was 3.23 µM; in the experiment on MALME-3M melanoma, 5.28 µM. Besides, the GI50 in the experiment with NCI-H522 lung is 3.34 µM; in the experiment with OVCAR-5 ovarian, 4.36 µM; in the experiment on SF-539 CNS, 3.59 µM; in the experiment with UO-31 renal, 1.72 µM. The TGI worked out at 7.09 µM in the experiment with 786-0 renal; 7.95 µM with HCC-2998 colon; 9.26 µM in the experiment on HCT-15 colon; 13 µM with HOP-92 NSCLC; 7.95 µM in the experiment on M14 melanoma; 14.9 µM in the experiment with MALME-3M melanoma. The TGI with NCI-H522 lung was determined as 8.41 µM; in the experiment on OVCAR-5 ovarian, 10.9 µM; in the experiment on SF-539 CNS, 7.12 µM; in the experiment with UO-31 renal it was 5.16 µM.

Regarding `N#Cc1c(N)nc(NCc2ccccc2)c(C#N)c1-c1ccccc1Cl`, the GI50 in the experiment on 786-0 renal was 13.4 µM; with HCC-2998 colon, over 100 µM; in the experiment with HCT-15 colon it was over 100 µM; in the experiment on HOP-92 NSCLC, 3.57 µM; in the experiment on M14 melanoma it was 23.2 µM; in the experiment on MALME-3M melanoma, 21 µM. Further, the GI50 in the experiment on NCI-H522 lung is 12.6 µM; in the experiment with OVCAR-5 ovarian it was 26.8 µM; with SF-539 CNS, 17.9 µM; with UO-31 renal, 38.1 µM. For the same compound, the TGI was 36.2 µM in the experiment with 786-0 renal; over 100 µM in the experiment with HCC-2998 colon; over 100 µM with HCT-15 colon; 25.5 µM in the experiment with HOP-92 NSCLC; over 100 µM in the experiment on M14 melanoma; 90.2 µM with MALME-3M melanoma. Moreover, the TGI was 55 µM in the experiment with NCI-H522 lung, over 100 µM with OVCAR-5 ovarian, 40.5 µM in the experiment with SF-539 CNS and over 100 µM in the experiment on UO-31 renal.

Take `OCC1OC2OC3C(CO)OC(OC4C(CO)OC(OC5C(CO)OC(OC6C(CO)OC(OC7C(CO)OC(OC1C(O)C2O)C(O)C7O)C(O)C6O)C(O)C5O)C(O)C4O)C(O)C3O` (stereo not given) (tested in a mixture with another compound): the TGI with 786-0 renal, in the experiment on HCC-2998 colon, with HCT-15 colon, in the experiment with HOP-92 NSCLC, with M14 melanoma and with MALME-3M melanoma was over 100 µM throughout. Further, the TGI is over 100 µM in the experiment with NCI-H522 lung, over 100 µM in the experiment on OVCAR-5 ovarian, over 78.8 µM with SF-539 CNS and over 100 µM in the experiment with UO-31 renal.

For the compound `CC1(C)N=C(N)N=C(N)N1c1cccc(CCCCOc2ccccc2)c1`, the GI50 with 786-0 renal is 0.142 µM; in the experiment with HCC-2998 colon, 0.0775 µM; in the experiment on HCT-15 colon, 3.01 µM; in the experiment with HOP-92 NSCLC, 2.26 µM; in the experiment on M14 melanoma, 0.0958 µM; in the experiment with MALME-3M melanoma it was 7.22 µM. Moreover, the GI50 was 0.0614 µM in the experiment with NCI-H522 lung, under 0.0335 µM in the experiment on OVCAR-5 ovarian, 0.127 µM in the experiment with SF-539 CNS and 47.2 µM in the experiment with UO-31 renal. Also, the TGI is over 100 µM in the experiment with 786-0 renal; 17.2 µM in the experiment with HCC-2998 colon; over 100 µM in the experiment on HCT-15 colon; 30.3 µM with HOP-92 NSCLC; over 41.3 µM in the experiment with M14 melanoma; 29.8 µM with MALME-3M melanoma. In addition, the TGI in the experiment with NCI-H522 lung was 13.3 µM; in the experiment with OVCAR-5 ovarian, over 100 µM; in the experiment on SF-539 CNS, 17 µM; in the experiment on UO-31 renal it was over 100 µM.

As for `O=S(=O)(CCNCc1ccc(-c2ccc3ncnc(Nc4ccc(OCc5cccc(F)c5)c(Cl)c4)c3c2)o1)c1ccccc1`, the GI50 is over 25 µM in the experiment on 786-0 renal; over 25 µM in the experiment on HCC-2998 colon; over 25 µM with HCT-15 colon; 14.9 µM with HOP-92 NSCLC; over 25 µM with M14 melanoma; over 25 µM in the experiment on MALME-3M melanoma. In addition, the GI50 was over 19.5 µM with NCI-H522 lung, over 25 µM in the experiment on OVCAR-5 ovarian, over 25 µM with SF-539 CNS and 9.06 µM in the experiment with UO-31 renal. In addition, the TGI in the experiment with 786-0 renal, with HCC-2998 colon, in the experiment on HCT-15 colon, with HOP-92 NSCLC, in the experiment with M14 melanoma and in the experiment on MALME-3M melanoma was over 25 µM each time. Moreover, the TGI in the experiment on NCI-H522 lung, with OVCAR-5 ovarian, in the experiment on SF-539 CNS and in the experiment with UO-31 renal was over 25 µM in each case.

The values are drawn from PubChem BioAssay (NCI).
